4 compounds from patent US20160033480A1, “Immunovir and Components, Immunovir A, B, C, D Utility and Useful Processes” (priority 2013, published 2016) can be followed below.

One experiment concerns mMφ/Mo. The experiment in a line: Effect on mice macrophages/mononuclear cells activities in vivo after CP immunosuppression. Conditions: immunovirs 10 mg/kg or AZT 20 mg/kg via tail vein day 2 to 5; CP-treated mice; FIG. 5. The procedure: Two mice of each group were injected with 10 mg/kg.b.w of immunovir (O, mixture), immunovir A, B, C, D, or 20 mg/kg.b.w of AZT via tail vein in the afternoon from day 2 to day 5, respectively. Each mouse's abdominal cavity was injected with 0.5 mL of RTAC in the afternoon of day 5, and mMφ/Mo were collected from each mouse's abdominal cavity with 10 mL of R7 1⁄2C in the afternoon of day 6. Basal medium rich in deposit cells were taken, and 0.40 mL was pipetted into two wells of flat-bottomed 24-well Falcon culture dish. After incubation with 5% CO2 for 6 hours, 0.10 mL of cRBC (1%) was added into each well and incubation was carried out for 6 hours or overnight. Then suspended cells, i.e., cRBC, were sucked out, the well was gently washed with 0.5 mL of RPMI 1640, and 0.40 mL of RBMI 1640 and 5 ul of Liu Stain B solution were added again to stain mMφ, whereas cRBCs were unstainable. CP immuno suppression was removed by Immunovir(mix), Immunovir […]. but not AZT in mouse's body, and the efficacy of Mφ/Mo activity increased as shown in FIG. 5.

The test system of another experiment is HIV1. Nature of the experiment: Anti-HIV1 activity in human venous blood mononuclear cells (HIV1P24 expression). The format is cell-based. Conditions: 21 days culture; FIG. 6. The procedure:
Mononuclear cells derived from human venous blood (1×10^7 cells/0.80 mL) were suspended in capped Greiner incubation tube with R20C containing 40 ug/mL rIL-2, and 0.10 mL of immunovir (40 ug/mL or diluted with 4 fold) or, as a comparison, AZT (100, 10, or 1 ug/mL), then incubated in 5% CO2 incubator at 36-37° C. for 21 days.
Cells were precipitated by centrifugation (250 g, 5 minutes) every 3 days, and culture medium were replaced to fresh ones with identical ingredients. For antigen expression, cells were stained by mouse anti-HIV1P24 IgG1 and rabbit anti-mouse IgG1-FITC.
The percentage of cells with HIV1P24 gag gene expression, i.e., the ratio of fluorescent cells detected by indirect fluorescent antibody technique was calculated.

The subject of a further experiment is Yac-1 cells. Nature of the experiment: Mononuclear killer cell activity derived from mouse's spleen (51Cr release from Yac-1 cells). The format is in vivo, BALB/c mice. Conditions: CP 200 and 100 mg/kg day 1 and 2; immunovir 10 mg/kg every day; spleens day 7.
For experiment [1], the system named is guinea pig peritoneal derived adherent macrophages (gMφ). Nature of the experiment: Effect on cellular immunity in vitro: gMφ killer cell activity against cRBC with or without cyclophosphamide. The format is cell-based. Conditions: second 20-hours incubation without CP; FIG. 4-1.
Description: The effector (killer) cells for this experiment were adherent macrophages (gMφ) derived from guinea pig's peritoneal fluid cultured with RTAG (RPMI 1640 enriched with 7.5% v/v guinea pig serum). Cyclophosphamide (CP) was used as an immunosuppressive agent. Chicken red blood cells (cRBC) as target cells.
The experiment consisted of four series of experiments: gMφ+cRBC, gMφ+Imm+cRBC, gMφ+CP+cRBC, and gMφ+CP+Imm+cRBC, and immunovir (Imm) as immune response modifier.
A 200 to 250 g guinea pig was injected with 1 mL of thioglycolate medium, after 20 hours adherent macrophages derived from abdominal cavity (gMφ) were collected by aid of RPMI 1640, suspended in RTAG, then 0.9 mL of solution was pipetted into thirteen Falcon 12-well culture plates. The plates for group 1 and 2 to group 4 were 1 and 3, respectively. […] In other words, each well was filled with 1 ug/mL CP in group 2, 10 ug/mL in group 3, and 100 ug/mL in group 4. After incubation in a 5% CO2 incubator (35-37° C.), the medium in each well was replaced with fresh R7½G from group 1 (only 1 plate for control) to group 4. Then Imm was added from lane 1 to lane 4 (3 wells per lane) that the final concentration were 0, 0.1, 1, and 10 ug/mL, respectively. That was to say, from group 2 to group 4, lane 1 was a CP control, and lane 1 in plate 1 was gMφ control. […]
The subject of the next experiment is cRBC. The experiment in a line: Hemagglutination activity. Conditions: 0.4% v/v cRBC, room temperature, 2 hours. The experiment is classed as cell-based, chicken. The procedure:
Immunovir A, B, C, and D, or concanavalin A with different concentrations were added into 2 mL of normal saline 0.4% v/v cRBC suspension in Kahn tube. The solution was mixed thoroughly and kept at room temperature for 2 hours to observe hema-agglutination.

Experiment [2] can be described thus: Bioactivity of separated immunovir components (test not specified).

Protocol for Yac-1 cells: Twenty male BALB/c mice aged 8 weeks were divided into group A, B, C, and D. Mice in group A were injected with 0.20 mL of normal saline intravenously. […] Group C received immunovir 10 mg/kg.b.w every day. Group D received CP as group B and immunovir as Group C. All mice's spleens were excised at day 7 and spleen-derived mononuclear cells were isolated by Ficol-paque centrifugation.
Yac-1 cells (2×10^6/mL) were labeled with R20C containing 1 uc/mL of ^51Cr-chromate for 60 minutes at 37° C.
Mouse's spleen-derived mononuclear cells (killer cells) (3×10^6) and ^51Cr-chromate-labeled Yac-1 cells (6×10^6) were suspended altogether in 1.0 mL of R20C medium and incubated at 37° C. for 150 minutes, centrifuged with 250 g for 10 minutes, then 0.50 mL of supernatant was taken and dried in the bottle.
Radioactivity was measured by liquid scintillation and toluene-PPO-POPOP was used as a scintillant.

In the case of `Cc1cn([C@H]2C[C@H](N=[N+]=[N-])[C@@H](CO)O2)c(=O)[nH]c1=O` [AZT], the “removal of CP immuno suppression in mouse's body (Mφ/Mo activity)” value in the experiment with mMφ/Mo is recorded as “not”. Besides, the anti-HIV1 activities compared entry in the experiment on HIV1 is reported as “approximately the same”.
Consider `O=P1(N(CCCl)CCCl)NCCCO1` (stereo not drawn) [CP, Cyclophosphamide], for which, in the experiment with Yac-1 cells, the “radioactivity released (51Cr from Yac-1 cells)” value was “inhibited”. In experiment [1], the “activity of gMφ after removal of CP” value is given as “unrecoverable”.
On to concanavalin A, for which the “nature of hema-agglutination of cRBC (resuspension by shaking)” value with cRBC was “firmly agglutinated with concanavalin A and could not be resuspended by shaking”.
Turning to `CO[C@H]1O[C@H](CO)[C@@H](O)[C@H](O)[C@@H]1O` [methyl-a-mannopyranoside], in experiment [2], the bioactivity entry is recorded as “low bioactivity”.
